Laboratory results taken from US12637499B2, “Adrenomedullin analog, method for producing the same, and pharmaceutical use thereof” (priority 2020, dated 2026).
Where two headings read alike, the source gives them in different places. Where a SMILES comes first, the peptide text is derived from it. Bridges are numbered along the chain shown (N, C = ends). Where no end group is shown, it is not given here.

Columns and labels:
in vivo [1] = settings: male, Wistar, rat, sc, 50 nmol/kg; for AUC: in vivo
Procedure: (§1) Eight-week-old male Wistar rats were purchased from Charles River Laboratories Japan, Inc. The rats were grown with normal feeds in the absence of specific pathogens under cycles of a 12-hour light period and a 12-hour dark period. […] To determine plasma AM concentrations, 50 nmol/kg of AM or an AM analog was subcutaneously administered. A peripheral blood sample was collected from the tail vein into a test tube (containing 21 μg of aprotinin and 0.3 mg of EDTA-2Na) at predetermined times (0, 15, 30, 60, and 120 minutes after administration). The test tube was centrifuged at 1,700×g to afford plasma.

in vivo [2] = test: in vivo
Procedure: Seven-week-old male Wistar rats were prepared, and grown with normal feeds. To determine plasma AM concentrations, 50 nmol/kg of AM or an AM analog was subcutaneously administered. A peripheral blood sample was collected from the tail vein into a Kantan tube® (containing heparin Na, Eiken Chemical Co., Ltd., Tochigi, Japan) at predetermined times (0, 15, 30, 60, and 120 minutes after administration). The tube was centrifuged at 2,000×g. Plasma was collected from the tube, and transferred into a test tube (containing 21 μg of aprotinin and 0.3 mg of EDTA-2Na) and stored. […] In the figure, the abscissa represents elapsed time after subcutaneous administration (hr), and the ordinate represents concentration in plasma of AM or an AM analog (pM). In addition, maximum concentrations in blood (Cmax) of AM or the AM analogs in rat plasma after subcutaneous administration were calculated.

[3] = 50 nmol/kg subcutaneous, Experiment VI
Procedure: as §1

in vitro [4] = test: in vitro
Procedure: After the lapse of a predetermined time, a 30-μl portion was taken out of the reaction solution, transferred into 170 μl of 0.1% aqueous solution of trifluoroacetic acid (TFA), and stored at −80° C. until analysis.
Quantitative analysis was performed for AM contained in the thus-obtained samples of a reaction mixture with serum or plasma by using specific fluoroimmunoassay (Tosoh Corporation) with two antibodies differing in their recognition sites. […] In the figure, the abscissa represents reaction time (min), and the ordinate represents concentration of AM (UM).
In the figure, the abscissa represents reaction time (min), and the ordinate represents concentration of AM or an AM analog (μM).
In the figure, the abscissa represents the type of AM or an AM analog, and the ordinate represents residual rates of AM or an AM analog (%).

in vitro [5] = settings: Experiment VIII; 10^−7 M, 37° C.; 1 hour after the beginning of reaction
Procedure: The stabilities of the AM analog peptides in serum were evaluated with the same procedure as in Experiment I except the following procedure. […] A reaction mixture containing 4 μL of phosphate buffer, 20 μL of human serum (Sigma-Aldrich Co. LLC, USA), and 14 μL of water was prepared. To the reaction mixture, 2 μL of AM or an AM analog peptide (2×10^−6 M, final concentration: 10^−7 M) was added, and reaction was initiated at 37° C. The reaction was terminated by addition of 160 μL of ELISA buffer to the reaction mixture 0, 1, or 4 hours after the beginning of reaction. […] In the figure, the abscissa represents reaction time (hr), and the ordinate represents concentration in serum of AM or an AM analog (%) represented as relative values to concentration of AM or an AM analog at the beginning of reaction (i.e., 0 hours after the beginning of reaction).

[6] = biological target: AM type 1 receptor (AMI receptor) (UniProt Q16602 23-461; O60895 43-175, limits assumed); test: cell-based or functional assay
Chain of AM type 1 receptor (AMI receptor) (Q16602 23-461 limits assumed, chain 1 of 2): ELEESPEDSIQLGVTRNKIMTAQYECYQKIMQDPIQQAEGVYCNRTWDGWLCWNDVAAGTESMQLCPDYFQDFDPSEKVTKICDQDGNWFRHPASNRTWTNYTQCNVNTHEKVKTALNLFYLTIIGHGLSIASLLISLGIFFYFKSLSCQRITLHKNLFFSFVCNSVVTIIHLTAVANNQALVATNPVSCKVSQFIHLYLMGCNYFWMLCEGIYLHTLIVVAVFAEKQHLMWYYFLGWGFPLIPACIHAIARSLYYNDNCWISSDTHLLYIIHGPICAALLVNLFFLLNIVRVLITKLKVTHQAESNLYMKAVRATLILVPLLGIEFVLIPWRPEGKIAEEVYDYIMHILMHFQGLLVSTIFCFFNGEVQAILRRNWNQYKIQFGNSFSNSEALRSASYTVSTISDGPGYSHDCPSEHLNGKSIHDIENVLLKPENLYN
Chain of AM type 1 receptor (AMI receptor) (O60895 43-175 limits assumed, chain 2 of 2): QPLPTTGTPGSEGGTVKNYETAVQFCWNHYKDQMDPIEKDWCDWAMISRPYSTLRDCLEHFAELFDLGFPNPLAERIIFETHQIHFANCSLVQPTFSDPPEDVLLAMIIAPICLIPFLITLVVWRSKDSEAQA

## CC[C@H](C)[C@H](NC(=O)[C@H](CCC(N)=O)NC(=O)[C@H](Cc1c[nH]cn1)NC(=O)[C@H](C)NC(=O)[C@H](CC(C)C)NC(=O)[C@H](CCCCN)NC(=O)[C@H](CCC(N)=O)NC(=O)[C@@H](NC(=O)[C@@H](NC(=O)[C@@H]1CSSC[C@H](NC(=O)CNC(=O)[C@H](Cc2ccccc2)NC(=O)[C@@H](N)CO)C(=O)N[C@@H](CCCNC(=N)N)C(=O)N[C@@H](Cc2ccccc2)C(=O)NCC(=O)N[C@@H]([C@@H](C)O)C(=O)N1)[C@@H](C)O)C(C)C)C(=O)N[C@@H](Cc1ccc(O)cc1)C(=O)N[C@@H](CCC(N)=O)C(=O)N[C@@H](Cc1ccccc1)C(=O)N[C@H](C(=O)N[C@@H](CC(=O)O)C(=O)N[C@@H](CCCCN)C(=O)N[C@@H](CC(=O)O)C(=O)N[C@@H](CCCCN)C(=O)N[C@@H](CC(=O)O)C(=O)N[C@@H](CC(N)=O)C(=O)N[C@H](C(=O)N[C@@H](C)C(=O)N1CCC[C@H]1C(=O)N[C@@H](C)C(=O)N[C@@H](CO)C(=O)N[C@@H](CCCCN)C(=O)N[C@H](C(=O)N[C@@H](CO)C(=O)N1CCC[C@H]1C(=O)N[C@@H](CCC(N)=O)C(=O)NCC(=O)N[C@@H](Cc1ccc(O)cc1)C(N)=O)[C@@H](C)CC)C(C)C)[C@@H](C)O [[Ala-44]hAM(13-52), SFGCRFGTCTVQKLAHQIYQFTDKDKDNVAPASKISPQGY-CONH2] (H-SFGCRFGTCTVQKLAHQIYQFTDKDKDNVAPASKISPQGY-NH2; disulfide 4-9; N-terminus assumed)
In vivo [1]
  AUC: 0.578 nM·h
In vivo [1]; plasma
  Cmax: 1.17 nM
  half-life: 1.37 h
In vivo [2]; 50 nmol/kg subcutaneous, Experiment X
  detection in rat plasma after subcutaneous administration: detected in rat plasma 15 minutes after administration
In vivo [2]; male, Wistar, rat, in vivo, sc, 50 nmol/kg
  Cmax: 0.777 nM
[3]
  detection in rat plasma after subcutaneous administration: detected in rat plasma 15 minutes after administration
[3]; rat
  Cmax relative to that of hAM(1-52): ≥ 100 times
In vitro [4]; Experiment IV, up to 240 minutes
  change in amount with the lapse of reaction time in reaction mixture with serum: almost no decrease or only slight decrease in amount
In vitro [4]; serum, pH 7.1
  remaining at 4 h: 96.4%

## CC[C@H](C)[C@H](NC(=O)[C@H](CCC(N)=O)NC(=O)[C@H](Cc1c[nH]cn1)NC(=O)[C@H](C)NC(=O)[C@H](CC(C)C)NC(=O)[C@H](CCCCN)NC(=O)[C@H](CCC(N)=O)NC(=O)[C@@H](NC(=O)[C@@H](NC(=O)[C@@H]1CSSC[C@H](NC(=O)CNC(=O)[C@H](Cc2ccccc2)NC(=O)[C@@H](N)CO)C(=O)N[C@@H](CCCNC(=N)N)C(=O)N[C@@H](Cc2ccccc2)C(=O)NCC(=O)N[C@@H]([C@@H](C)O)C(=O)N1)[C@@H](C)O)C(C)C)C(=O)N[C@@H](Cc1ccc(O)cc1)C(=O)N[C@@H](CCC(N)=O)C(=O)N[C@@H](Cc1ccccc1)C(=O)N[C@H](C(=O)N[C@@H](CC(=O)O)C(=O)N[C@@H](CCCCN)C(=O)N[C@@H](CC(=O)O)C(=O)N[C@@H](CCCCN)C(=O)N[C@@H](CC(=O)O)C(=O)N[C@@H](CC(N)=O)C(=O)N[C@H](C(=O)N[C@@H](C)C(=O)N1CCC[C@H]1C(=O)N[C@@H](CCCNC(=N)N)C(=O)N[C@@H](CO)C(=O)N[C@@H](CCCCN)C(=O)N[C@H](C(=O)N[C@@H](CO)C(=O)N1CCC[C@H]1C(=O)N[C@@H](CCC(N)=O)C(=O)NCC(=O)N[C@@H](Cc1ccc(O)cc1)C(N)=O)[C@@H](C)CC)C(C)C)[C@@H](C)O [hAM(13-52), SFGCRFGTCTVQKLAHQIYQFTDKDKDNVAPRSKISPQGY-CONH2, reference compound]
In vivo [1]
  AUC: 0.0832 nM·h
In vivo [1]; plasma
  Cmax: 0.165 nM
[3]
  detection in rat plasma after subcutaneous administration: hardly detected
In vitro [4]; Experiment IV, 240 minutes after the beginning of reaction
  concentration of AM or AM analog in reaction mixture with serum: below the detection limit
In vitro [4]; Experiment IV, 240 minutes vs 0 minutes after the beginning of reaction
  residual rate in reaction mixture with serum: 0.2%
In vitro [5]
  presence in reaction mixture with human serum: substantially disappeared

B1: [Gly-44]hAM(13-52) (peptide)
peptide: SFGCRFGTCTVQKLAHQIYQFTDKDKDNVAPGSKISPQGY-NH2
modifications: disulfide 4-9; N-terminus assumed
SMILES: CC[C@H](C)[C@H](NC(=O)[C@H](CCC(N)=O)NC(=O)[C@H](Cc1c[nH]cn1)NC(=O)[C@H](C)NC(=O)[C@H](CC(C)C)NC(=O)[C@H](CCCCN)NC(=O)[C@H](CCC(N)=O)NC(=O)[C@@H](NC(=O)[C@@H](NC(=O)[C@@H]1CSSC[C@H](NC(=O)CNC(=O)[C@H](Cc2ccccc2)NC(=O)[C@@H](N)CO)C(=O)N[C@@H](CCCNC(=N)N)C(=O)N[C@@H](Cc2ccccc2)C(=O)NCC(=O)N[C@@H]([C@@H](C)O)C(=O)N1)[C@@H](C)O)C(C)C)C(=O)N[C@@H](Cc1ccc(O)cc1)C(=O)N[C@@H](CCC(N)=O)C(=O)N[C@@H](Cc1ccccc1)C(=O)N[C@H](C(=O)N[C@@H](CC(=O)O)C(=O)N[C@@H](CCCCN)C(=O)N[C@@H](CC(=O)O)C(=O)N[C@@H](CCCCN)C(=O)N[C@@H](CC(=O)O)C(=O)N[C@@H](CC(N)=O)C(=O)N[C@H](C(=O)N[C@@H](C)C(=O)N1CCC[C@H]1C(=O)NCC(=O)N[C@@H](CO)C(=O)N[C@@H](CCCCN)C(=O)N[C@H](C(=O)N[C@@H](CO)C(=O)N1CCC[C@H]1C(=O)N[C@@H](CCC(N)=O)C(=O)NCC(=O)N[C@@H](Cc1ccc(O)cc1)C(N)=O)[C@@H](C)CC)C(C)C)[C@@H](C)O
[6]
  logarithmic values of 50%-effective concentration (pEC50) for intracellular cAMP concentration-increasing activity: 7.96 pEC50

B2: [des-Arg-44]hAM(13-52) (peptide)
peptide: SFGCRFGTCTVQKLAHQIYQFTDKDKDNVAPSKISPQGY-NH2
modifications: disulfide 4-9; N-terminus assumed
SMILES: CC[C@H](C)[C@H](NC(=O)[C@H](CCC(N)=O)NC(=O)[C@H](Cc1c[nH]cn1)NC(=O)[C@H](C)NC(=O)[C@H](CC(C)C)NC(=O)[C@H](CCCCN)NC(=O)[C@H](CCC(N)=O)NC(=O)[C@@H](NC(=O)[C@@H](NC(=O)[C@@H]1CSSC[C@H](NC(=O)CNC(=O)[C@H](Cc2ccccc2)NC(=O)[C@@H](N)CO)C(=O)N[C@@H](CCCNC(=N)N)C(=O)N[C@@H](Cc2ccccc2)C(=O)NCC(=O)N[C@@H]([C@@H](C)O)C(=O)N1)[C@@H](C)O)C(C)C)C(=O)N[C@@H](Cc1ccc(O)cc1)C(=O)N[C@@H](CCC(N)=O)C(=O)N[C@@H](Cc1ccccc1)C(=O)N[C@H](C(=O)N[C@@H](CC(=O)O)C(=O)N[C@@H](CCCCN)C(=O)N[C@@H](CC(=O)O)C(=O)N[C@@H](CCCCN)C(=O)N[C@@H](CC(=O)O)C(=O)N[C@@H](CC(N)=O)C(=O)N[C@H](C(=O)N[C@@H](C)C(=O)N1CCC[C@H]1C(=O)N[C@@H](CO)C(=O)N[C@@H](CCCCN)C(=O)N[C@H](C(=O)N[C@@H](CO)C(=O)N1CCC[C@H]1C(=O)N[C@@H](CCC(N)=O)C(=O)NCC(=O)N[C@@H](Cc1ccc(O)cc1)C(N)=O)[C@@H](C)CC)C(C)C)[C@@H](C)O
[6]
  logarithmic values of 50%-effective concentration (pEC50) for intracellular cAMP concentration-increasing activity: 8.71 pEC50
